Test results published in the kinase profiling compilation of Christmann-Franck et al. (2016).
Values belong to the compound of their own block, whether it stands above or below them.

What was measured:
Test in all cases: radiometric filter-binding kinase assay
NEK2 (human) = NEK2 (human) (UniProt P51955)
GCK (human) = GCK (human) (UniProt Q12851)
MAPKAPK5 (human) = MAPKAPK5 (human) (UniProt Q8IW41)
IKBKE (human) = IKBKE (human) (UniProt Q14164)
FLT1 (human) = FLT1 (human) (UniProt P17948)
CLK2 (human) = CLK2 (human) (UniProt P49760)
MAPKAPK2 (human) = MAPKAPK2 (human) (UniProt P49137)
ROCK2 (rat) = conditions: accession and sequence are those of the human protein
DYRK2 (human) = DYRK2 (human) (UniProt Q92630)
MAPK12 (human) = MAPK12 (human) (UniProt P53778)
HIPK2 (human) = HIPK2 (human) (UniProt Q9H2X6)
EPHB1 (human) = EPHB1 (human) (UniProt P54762)
IRAK4 (human) = IRAK4 (human) (UniProt Q9NWZ3)
TTK (human) = TTK (human) (UniProt P33981)
PIM3 (human) = PIM3 (human) (UniProt Q86V86)
RPS6KA1 KD1 KD2 (human) = RPS6KA1 KD1 KD2 (human) (UniProt Q15418)
MYLK (human) = MYLK (human) (UniProt Q15746)
EPHB4 (human) = EPHB4 (human) (UniProt P54760)
MAP3K7 TAB1 (human) = MAP3K7 TAB1 (human) (UniProt Q15750+O43318)
PIM1 (human) = PIM1 (human) (UniProt P11309)
[1] = test system: RPS6KB1 (human), P23443 [T412E]
Sequence of RPS6KB1 (human), P23443 [T412E] (P23443 whole entry T412E, looked up): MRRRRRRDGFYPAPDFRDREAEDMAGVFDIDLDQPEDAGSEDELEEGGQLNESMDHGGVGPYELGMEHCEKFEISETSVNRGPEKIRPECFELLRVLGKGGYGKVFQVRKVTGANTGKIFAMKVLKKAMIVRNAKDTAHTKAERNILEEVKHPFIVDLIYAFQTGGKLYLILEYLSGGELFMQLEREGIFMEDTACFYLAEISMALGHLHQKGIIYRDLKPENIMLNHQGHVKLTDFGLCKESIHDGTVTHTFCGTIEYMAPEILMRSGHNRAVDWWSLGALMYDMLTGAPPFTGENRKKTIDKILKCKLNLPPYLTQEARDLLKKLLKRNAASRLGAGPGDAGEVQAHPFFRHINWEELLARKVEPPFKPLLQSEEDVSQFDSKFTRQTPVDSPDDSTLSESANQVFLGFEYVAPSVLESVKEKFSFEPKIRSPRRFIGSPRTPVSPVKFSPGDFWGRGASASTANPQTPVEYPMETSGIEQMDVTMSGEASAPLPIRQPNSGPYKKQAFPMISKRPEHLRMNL

DAPK1 (human) = DAPK1 (human) (UniProt P53355)
EPHA2 (human) = EPHA2 (human) (UniProt P29317)
CHEK2 (human) = CHEK2 (human) (UniProt O96017)
DYRK3 (human) = DYRK3 (human) (UniProt O43781)
MARK1 (human) = MARK1 (human) (UniProt Q9P0L2)
MARK2 (human) = MARK2 (human) (UniProt Q7KZI7)
PKN2 (human) = PKN2 (human) (UniProt Q16513)
[2] = test system: SGK1 (human), O00141 [S422D]
Sequence of SGK1 (human), O00141 [S422D] (O00141 whole entry S422D, looked up): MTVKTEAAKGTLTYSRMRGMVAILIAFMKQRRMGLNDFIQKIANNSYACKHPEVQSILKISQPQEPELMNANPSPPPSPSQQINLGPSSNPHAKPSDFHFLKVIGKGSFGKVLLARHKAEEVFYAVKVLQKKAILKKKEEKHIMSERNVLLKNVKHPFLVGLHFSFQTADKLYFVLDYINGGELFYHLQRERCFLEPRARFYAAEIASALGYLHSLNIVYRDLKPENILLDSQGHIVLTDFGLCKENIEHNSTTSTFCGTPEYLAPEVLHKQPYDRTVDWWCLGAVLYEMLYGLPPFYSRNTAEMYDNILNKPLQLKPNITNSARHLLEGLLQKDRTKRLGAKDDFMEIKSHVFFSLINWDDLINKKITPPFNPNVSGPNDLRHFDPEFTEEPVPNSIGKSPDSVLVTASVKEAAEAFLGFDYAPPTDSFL

STK3 (human) = STK3 (human) (UniProt Q13188)
EPHB2 (human) = EPHB2 (human) (UniProt P29323)
Sequence of EPHB2 (human) (P29323 whole entry, looked up): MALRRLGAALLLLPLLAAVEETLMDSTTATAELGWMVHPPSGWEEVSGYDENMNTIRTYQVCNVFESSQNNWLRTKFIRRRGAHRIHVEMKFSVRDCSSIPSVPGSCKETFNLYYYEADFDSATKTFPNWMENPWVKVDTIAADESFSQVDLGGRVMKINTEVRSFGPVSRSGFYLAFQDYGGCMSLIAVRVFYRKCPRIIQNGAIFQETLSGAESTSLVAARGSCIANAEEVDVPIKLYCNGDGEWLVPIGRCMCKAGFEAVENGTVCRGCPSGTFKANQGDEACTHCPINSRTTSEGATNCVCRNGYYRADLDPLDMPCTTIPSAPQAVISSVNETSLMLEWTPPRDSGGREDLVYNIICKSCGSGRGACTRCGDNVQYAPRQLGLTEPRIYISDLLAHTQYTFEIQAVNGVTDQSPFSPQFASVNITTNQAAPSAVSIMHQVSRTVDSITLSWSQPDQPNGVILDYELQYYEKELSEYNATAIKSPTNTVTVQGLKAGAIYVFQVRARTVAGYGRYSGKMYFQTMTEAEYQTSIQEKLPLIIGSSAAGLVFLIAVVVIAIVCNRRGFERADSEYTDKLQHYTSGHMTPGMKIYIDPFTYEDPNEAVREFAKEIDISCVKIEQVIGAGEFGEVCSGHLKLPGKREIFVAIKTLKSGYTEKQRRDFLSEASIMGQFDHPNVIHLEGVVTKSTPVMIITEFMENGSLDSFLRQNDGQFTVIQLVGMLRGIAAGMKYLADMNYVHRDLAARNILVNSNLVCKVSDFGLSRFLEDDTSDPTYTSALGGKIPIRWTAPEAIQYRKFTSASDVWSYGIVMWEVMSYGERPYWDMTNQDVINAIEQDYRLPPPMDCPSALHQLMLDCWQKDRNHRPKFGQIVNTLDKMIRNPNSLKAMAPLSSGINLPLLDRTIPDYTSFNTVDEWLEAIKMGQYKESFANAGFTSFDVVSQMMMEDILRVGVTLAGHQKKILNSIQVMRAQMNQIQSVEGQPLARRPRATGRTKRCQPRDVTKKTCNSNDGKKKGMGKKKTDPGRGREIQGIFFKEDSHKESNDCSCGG

PRKCA (human) = PRKCA (human) (UniProt P17252)
MAPK14 (human) = MAPK14 (human) (UniProt Q16539)
MELK (human) = MELK (human) (UniProt Q14680)
Sequence of MELK (human) (Q14680 whole entry, looked up): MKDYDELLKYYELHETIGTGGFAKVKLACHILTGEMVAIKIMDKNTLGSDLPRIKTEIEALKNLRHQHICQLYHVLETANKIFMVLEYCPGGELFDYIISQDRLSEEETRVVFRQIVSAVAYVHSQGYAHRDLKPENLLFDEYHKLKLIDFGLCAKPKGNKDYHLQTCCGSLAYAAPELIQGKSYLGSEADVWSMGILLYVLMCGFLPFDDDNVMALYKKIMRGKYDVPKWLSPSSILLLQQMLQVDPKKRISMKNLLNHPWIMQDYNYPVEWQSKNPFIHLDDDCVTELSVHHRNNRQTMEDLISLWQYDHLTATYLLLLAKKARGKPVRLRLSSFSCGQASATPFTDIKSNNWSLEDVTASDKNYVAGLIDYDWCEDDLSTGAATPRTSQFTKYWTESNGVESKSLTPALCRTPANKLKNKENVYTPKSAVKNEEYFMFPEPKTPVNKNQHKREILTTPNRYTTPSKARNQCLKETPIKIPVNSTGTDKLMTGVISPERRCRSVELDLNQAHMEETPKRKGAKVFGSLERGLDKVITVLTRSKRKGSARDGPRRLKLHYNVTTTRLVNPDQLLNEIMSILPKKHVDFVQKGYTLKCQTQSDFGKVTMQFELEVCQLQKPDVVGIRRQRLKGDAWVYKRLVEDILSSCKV

TAOK1 (human) = TAOK1 (human) (UniProt Q7L7X3)

Sequence of FLT1 (human) (P17948 whole entry, looked up): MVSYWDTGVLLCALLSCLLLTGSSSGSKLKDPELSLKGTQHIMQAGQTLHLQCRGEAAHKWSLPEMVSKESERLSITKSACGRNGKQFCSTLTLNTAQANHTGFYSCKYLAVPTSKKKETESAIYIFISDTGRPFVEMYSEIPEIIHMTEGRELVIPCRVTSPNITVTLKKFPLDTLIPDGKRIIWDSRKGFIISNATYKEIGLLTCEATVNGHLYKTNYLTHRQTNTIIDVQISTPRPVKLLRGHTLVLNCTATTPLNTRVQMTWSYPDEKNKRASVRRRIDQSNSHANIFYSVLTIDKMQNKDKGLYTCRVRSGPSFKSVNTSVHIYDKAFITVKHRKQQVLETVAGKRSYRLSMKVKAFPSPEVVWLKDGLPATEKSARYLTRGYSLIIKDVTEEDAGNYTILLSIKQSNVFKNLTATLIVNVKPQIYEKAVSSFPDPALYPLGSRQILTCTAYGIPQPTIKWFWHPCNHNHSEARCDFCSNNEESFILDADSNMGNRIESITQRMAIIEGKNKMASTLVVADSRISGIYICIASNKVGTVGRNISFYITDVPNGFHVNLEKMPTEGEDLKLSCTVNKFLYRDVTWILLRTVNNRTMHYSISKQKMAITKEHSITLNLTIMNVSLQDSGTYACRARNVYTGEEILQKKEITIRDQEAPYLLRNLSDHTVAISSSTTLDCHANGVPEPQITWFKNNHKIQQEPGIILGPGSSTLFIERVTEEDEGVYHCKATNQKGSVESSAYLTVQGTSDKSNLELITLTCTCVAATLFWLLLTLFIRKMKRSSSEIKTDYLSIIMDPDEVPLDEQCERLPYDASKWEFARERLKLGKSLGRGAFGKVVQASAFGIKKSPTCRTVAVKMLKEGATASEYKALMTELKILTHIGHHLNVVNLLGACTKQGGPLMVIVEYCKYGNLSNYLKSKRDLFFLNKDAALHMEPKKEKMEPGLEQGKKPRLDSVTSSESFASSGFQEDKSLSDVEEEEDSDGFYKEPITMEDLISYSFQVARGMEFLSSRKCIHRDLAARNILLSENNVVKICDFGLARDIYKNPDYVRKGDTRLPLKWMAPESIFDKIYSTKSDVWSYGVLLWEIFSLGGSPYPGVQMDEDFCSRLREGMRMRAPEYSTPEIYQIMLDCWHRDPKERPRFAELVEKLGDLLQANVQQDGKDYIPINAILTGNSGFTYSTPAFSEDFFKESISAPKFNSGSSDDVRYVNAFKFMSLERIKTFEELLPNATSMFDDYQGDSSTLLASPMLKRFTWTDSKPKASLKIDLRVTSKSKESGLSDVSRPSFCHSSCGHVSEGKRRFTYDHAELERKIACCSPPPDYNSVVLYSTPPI
Sequence of GCK (human) (Q12851 whole entry, looked up): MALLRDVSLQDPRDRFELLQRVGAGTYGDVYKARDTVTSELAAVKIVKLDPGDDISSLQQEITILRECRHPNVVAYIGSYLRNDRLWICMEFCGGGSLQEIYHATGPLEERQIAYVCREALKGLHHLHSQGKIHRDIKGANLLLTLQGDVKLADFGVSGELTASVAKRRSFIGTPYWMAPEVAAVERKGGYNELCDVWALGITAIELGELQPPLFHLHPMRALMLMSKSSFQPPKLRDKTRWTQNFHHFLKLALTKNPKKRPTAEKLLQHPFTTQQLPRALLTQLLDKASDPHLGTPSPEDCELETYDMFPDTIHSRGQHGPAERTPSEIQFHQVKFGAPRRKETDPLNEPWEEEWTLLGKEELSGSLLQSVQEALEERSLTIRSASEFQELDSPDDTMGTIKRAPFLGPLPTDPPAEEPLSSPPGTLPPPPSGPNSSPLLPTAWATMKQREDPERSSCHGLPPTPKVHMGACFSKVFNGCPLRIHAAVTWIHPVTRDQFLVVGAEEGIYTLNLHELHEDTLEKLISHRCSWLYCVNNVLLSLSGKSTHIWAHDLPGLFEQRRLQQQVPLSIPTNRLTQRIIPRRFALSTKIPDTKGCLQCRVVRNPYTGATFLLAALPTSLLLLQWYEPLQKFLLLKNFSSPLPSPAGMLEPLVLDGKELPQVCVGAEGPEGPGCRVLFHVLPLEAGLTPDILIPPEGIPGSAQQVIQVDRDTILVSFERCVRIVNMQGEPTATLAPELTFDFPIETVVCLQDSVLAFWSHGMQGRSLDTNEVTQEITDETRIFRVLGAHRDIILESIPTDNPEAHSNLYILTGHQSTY

residual activity (NEK2 (human); compound 1.0 µM): 98%
residual activity (NEK2 (human); compound 10.0 µM): 94%
residual activity (GCK (human); compound 1.0 µM): 79%
residual activity (GCK (human); compound 10.0 µM): 91%
residual activity (MAPKAPK5 (human); compound 1.0 µM): 93%
residual activity (MAPKAPK5 (human); compound 10.0 µM): 100%
residual activity (IKBKE (human); compound 1.0 µM): 102%
residual activity (IKBKE (human); compound 10.0 µM): 103%
residual activity (FLT1 (human); compound 1.0 µM): 98%
residual activity (FLT1 (human); compound 10.0 µM): 42%
residual activity (CLK2 (human); compound 1.0 µM): 94%
residual activity (CLK2 (human); compound 10.0 µM): 91%
residual activity (MAPKAPK2 (human); compound 1.0 µM): 104%
residual activity (MAPKAPK2 (human); compound 10.0 µM): 102%
residual activity (ROCK2 (rat); compound 1.0 µM): 102%
residual activity (ROCK2 (rat); compound 10.0 µM): 103%
residual activity (DYRK2 (human); compound 1.0 µM): 107%
residual activity (DYRK2 (human); compound 10.0 µM): 111%
residual activity (MAPK12 (human); compound 1.0 µM): 80%
residual activity (MAPK12 (human); compound 10.0 µM): 96%
residual activity (HIPK2 (human); compound 1.0 µM): 102%
residual activity (HIPK2 (human); compound 10.0 µM): 106%
residual activity (EPHB1 (human); compound 1.0 µM): 107%
residual activity (EPHB1 (human); compound 10.0 µM): 92%
residual activity (IRAK4 (human); compound 1.0 µM): 77%
residual activity (IRAK4 (human); compound 10.0 µM): 91%
residual activity (TTK (human); compound 1.0 µM): 105%
residual activity (TTK (human); compound 10.0 µM): 98%
residual activity (PIM3 (human); compound 1.0 µM): 94%
residual activity (PIM3 (human); compound 10.0 µM): 65%
residual activity (RPS6KA1 KD1 KD2 (human); compound 1.0 µM): 122%
residual activity (RPS6KA1 KD1 KD2 (human); compound 10.0 µM): 98%
residual activity (MYLK (human); compound 10.0 µM): 86%
residual activity (EPHB4 (human); compound 1.0 µM): 98%
residual activity (EPHB4 (human); compound 10.0 µM): 86%
residual activity (MAP3K7 TAB1 (human); compound 1.0 µM): 91%
residual activity (MAP3K7 TAB1 (human); compound 10.0 µM): 92%
residual activity (PIM1 (human); compound 1.0 µM): 102%
residual activity (PIM1 (human); compound 10.0 µM): 71%
residual activity ([1]; compound 1.0 µM): 94%
residual activity ([1]; compound 10.0 µM): 80%
residual activity (DAPK1 (human); compound 1.0 µM): 97%
residual activity (DAPK1 (human); compound 10.0 µM): 98%
residual activity (EPHA2 (human); compound 1.0 µM): 112%
residual activity (EPHA2 (human); compound 10.0 µM): 105%
residual activity (CHEK2 (human); compound 1.0 µM): 104%
residual activity (CHEK2 (human); compound 10.0 µM): 93%
residual activity (DYRK3 (human); compound 1.0 µM): 107%
residual activity (DYRK3 (human); compound 10.0 µM): 83%
residual activity (MARK1 (human); compound 1.0 µM): 77%
residual activity (MARK1 (human); compound 10.0 µM): 71%
residual activity (MARK2 (human); compound 1.0 µM): 101%
residual activity (MARK2 (human); compound 10.0 µM): 101%
residual activity (PKN2 (human); compound 1.0 µM): 70%
residual activity (PKN2 (human); compound 10.0 µM): 79%
residual activity ([2]; compound 1.0 µM): 71%
residual activity ([2]; compound 10.0 µM): 111%
residual activity (STK3 (human); compound 1.0 µM): 71%
residual activity (STK3 (human); compound 10.0 µM): 75%
residual activity (EPHB2 (human); compound 10.0 µM): 77%
residual activity (PRKCA (human); compound 1.0 µM): 93%
residual activity (PRKCA (human); compound 10.0 µM): 86%
residual activity (MAPK14 (human); compound 1.0 µM): 102%
residual activity (MAPK14 (human); compound 10.0 µM): 97%
residual activity (MELK (human); compound 1.0 µM): 109%
residual activity (MELK (human); compound 10.0 µM): 106%
Compound: O=C(NOCC(O)CO)c1ccc(F)c(F)c1Nc1ccc(I)cc1Cl (stereo not given)

residual activity (NEK2 (human); compound 100.0 µM): 118%
residual activity (GCK (human); compound 100.0 µM): 80%
residual activity (MAPKAPK5 (human); compound 100.0 µM): 70%
residual activity (IKBKE (human); compound 100.0 µM): 94%
residual activity (FLT1 (human); compound 100.0 µM): 62%
residual activity (MAPKAPK2 (human); compound 100.0 µM): 107%
residual activity (ROCK2 (rat); compound 100.0 µM): 105%
residual activity (DYRK2 (human); compound 100.0 µM): 78%
residual activity (MAPK12 (human); compound 100.0 µM): 108%
residual activity (HIPK2 (human); compound 100.0 µM): 42%
residual activity (EPHB1 (human); compound 100.0 µM): 97%
residual activity (TTK (human); compound 100.0 µM): 90%
residual activity (PIM3 (human); compound 100.0 µM): 45%
residual activity (RPS6KA1 KD1 KD2 (human); compound 100.0 µM): 99%
residual activity (MYLK (human); compound 100.0 µM): 97%
residual activity (EPHB4 (human); compound 100.0 µM): 123%
residual activity (MAP3K7 TAB1 (human); compound 100.0 µM): 31%
residual activity (PIM1 (human); compound 100.0 µM): 62%
residual activity ([1]; compound 100.0 µM): 102%
residual activity (DAPK1 (human); compound 100.0 µM): 82%
residual activity (EPHA2 (human); compound 100.0 µM): 89%
residual activity (CHEK2 (human); compound 100.0 µM): 100%
residual activity (DYRK3 (human); compound 100.0 µM): 65%
residual activity (MARK1 (human); compound 100.0 µM): 99%
residual activity (MARK2 (human); compound 100.0 µM): 98%
residual activity (PKN2 (human); compound 100.0 µM): 126%
residual activity ([2]; compound 100.0 µM): 52%
residual activity (STK3 (human); compound 100.0 µM): 81%
residual activity (EPHB2 (human); compound 100.0 µM): 96%
residual activity (TAOK1 (human); compound 100.0 µM): 109%
residual activity (PRKCA (human); compound 100.0 µM): 81%
residual activity (MAPK14 (human); compound 100.0 µM): 58%
residual activity (MELK (human); compound 100.0 µM): 87%
Compound: Cc1cc(N=Nc2cc(S(=O)(=O)O)c(C)cc2C)c(N)cc1O

residual activity (NEK2 (human); compound 10.0 µM): 102%
residual activity (GCK (human); compound 10.0 µM): 80%
residual activity (MAPKAPK5 (human); compound 10.0 µM): 85%
residual activity (FLT1 (human); compound 10.0 µM): 78%
residual activity (CLK2 (human); compound 10.0 µM): 95%
residual activity (MAPKAPK2 (human); compound 10.0 µM): 86%
residual activity (ROCK2 (rat); compound 10.0 µM): 95%
residual activity (DYRK2 (human); compound 10.0 µM): 107%
residual activity (MAPK12 (human); compound 10.0 µM): 72%
residual activity (HIPK2 (human); compound 10.0 µM): 97%
residual activity (EPHB1 (human); compound 10.0 µM): 117%
residual activity (IRAK4 (human); compound 10.0 µM): 66%
residual activity (TTK (human); compound 10.0 µM): 80%
residual activity (PIM3 (human); compound 10.0 µM): 116%
residual activity (RPS6KA1 KD1 KD2 (human); compound 10.0 µM): 90%
residual activity (MYLK (human); compound 10.0 µM): 112%
residual activity (MAP3K7 TAB1 (human); compound 10.0 µM): 98%
residual activity (PIM1 (human); compound 10.0 µM): 88%
residual activity ([1]; compound 10.0 µM): 95%
residual activity (CHEK2 (human); compound 10.0 µM): 93%
residual activity (DYRK3 (human); compound 10.0 µM): 91%
residual activity (MARK1 (human); compound 10.0 µM): 109%
residual activity (MARK2 (human); compound 10.0 µM): 95%
residual activity (PKN2 (human); compound 10.0 µM): 69%
residual activity ([2]; compound 10.0 µM): 70%
residual activity (STK3 (human); compound 10.0 µM): 82%
residual activity (EPHB2 (human); compound 10.0 µM): 102%
residual activity (TAOK1 (human); compound 10.0 µM): 98%
residual activity (PRKCA (human); compound 10.0 µM): 82%
residual activity (MAPK14 (human); compound 10.0 µM): 74%
residual activity (MELK (human); compound 10.0 µM): 107%
Compound: O=S(=O)(c1ccc(F)c2nonc12)N1CCN(c2ncc(C(F)(F)F)cc2Cl)CC1
